Experimental data as given in US6492365B1, “Microsomal triglyceride transfer protein” (Bristol-Myers Squibb Company, priority 1992, dated 2002).
Counter-ions that a name gives are not always drawn.

Molecular target: T1, bovine MTP (Bos taurus, UniProt P55156)
T1 construct: with about 50-200 ng purified MTP in the well of a 96-well plate; from tissue; host or cells: bovine liver
T1 sequence (P55156 12-887): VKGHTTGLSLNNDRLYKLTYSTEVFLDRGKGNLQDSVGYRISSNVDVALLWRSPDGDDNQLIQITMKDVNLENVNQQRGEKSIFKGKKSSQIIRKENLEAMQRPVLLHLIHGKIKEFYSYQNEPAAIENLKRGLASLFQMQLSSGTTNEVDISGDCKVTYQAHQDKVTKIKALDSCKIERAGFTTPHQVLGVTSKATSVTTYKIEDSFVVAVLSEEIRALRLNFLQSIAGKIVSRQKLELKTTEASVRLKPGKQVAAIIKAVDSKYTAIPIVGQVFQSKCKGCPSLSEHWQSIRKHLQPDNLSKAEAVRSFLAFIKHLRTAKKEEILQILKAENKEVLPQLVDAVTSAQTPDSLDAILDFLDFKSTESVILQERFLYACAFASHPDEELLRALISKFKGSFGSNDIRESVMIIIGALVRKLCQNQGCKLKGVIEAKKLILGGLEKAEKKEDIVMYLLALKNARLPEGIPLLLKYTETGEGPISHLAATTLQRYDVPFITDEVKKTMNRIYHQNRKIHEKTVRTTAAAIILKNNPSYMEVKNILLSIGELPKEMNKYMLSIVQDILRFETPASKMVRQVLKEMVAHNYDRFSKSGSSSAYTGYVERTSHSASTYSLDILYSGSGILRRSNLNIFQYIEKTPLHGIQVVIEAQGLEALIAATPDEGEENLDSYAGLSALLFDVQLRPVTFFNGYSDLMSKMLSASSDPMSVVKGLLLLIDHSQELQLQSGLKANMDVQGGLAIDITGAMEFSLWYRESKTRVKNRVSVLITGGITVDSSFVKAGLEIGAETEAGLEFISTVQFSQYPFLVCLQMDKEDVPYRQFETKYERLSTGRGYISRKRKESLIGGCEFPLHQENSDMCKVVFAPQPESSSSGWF
T1 sequence (P05307 21-510 partner): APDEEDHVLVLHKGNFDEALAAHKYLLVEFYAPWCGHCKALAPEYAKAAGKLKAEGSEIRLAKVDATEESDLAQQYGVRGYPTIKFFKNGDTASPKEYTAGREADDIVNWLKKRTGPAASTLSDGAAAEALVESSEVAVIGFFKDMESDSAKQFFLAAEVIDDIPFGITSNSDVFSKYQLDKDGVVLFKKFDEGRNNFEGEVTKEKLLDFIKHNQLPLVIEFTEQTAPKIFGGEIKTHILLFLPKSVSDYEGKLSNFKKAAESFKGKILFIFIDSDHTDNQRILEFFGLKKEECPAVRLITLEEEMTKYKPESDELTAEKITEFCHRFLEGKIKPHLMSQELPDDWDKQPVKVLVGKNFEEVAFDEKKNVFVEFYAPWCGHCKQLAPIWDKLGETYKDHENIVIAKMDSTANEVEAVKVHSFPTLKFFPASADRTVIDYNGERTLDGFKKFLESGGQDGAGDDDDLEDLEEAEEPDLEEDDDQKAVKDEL
Assay: MTP-catalyzed transport of radiolabeled TG from donor SUV to acceptor SUV
Format: biochemical
Conditions: for IC50: 30 minutes at 37° C., read-out: IC50 for inhibition of MTP-catalyzed TG transport from donor SUV to acceptor SUV
Description: (§1) Compound A was dissolved in DMSO and then diluted into 15/40 buffer. Aliquots were added to a lipid transfer assay to bring the compound to the indicated final concentrations. DMSO concentration in the assay never exceeded 2 μL/600 μL, a concentration that was independently determined to have minimal effect on the assay. MTP-catalyzed lipid transport was measured for 30 minutes at 37° C. TG transfer was calculated and compared to a control assay without inhibitor.
as §1, with “Compound B” for “Compound A”
TG transfer activity was measured as the protein-stimulated rate of TG transfer from donor SUV to acceptor SUV. To prepare donor and acceptor vesicles, the appropriate lipids in chloroform were mixed in a 16×125 mm borosilicate glass screw cap tube (Fisher Scientific Co., Pittsburg, Pa., Cat. no. 14-933-1A) and then dried under a stream of nitrogen. Two mL 15/40 buffer (15 mM Tris, pH 7.4, 40 mM sodium chloride, 1 mM EDTA, and 0.02% NaN3) were added to the dried lipids (or 100 μL per assay, which ever is the least volume), a stream of nitrogen was blown over the buffer, then the cap was quickly screwed on to trap a nitrogen atmosphere over the lipid suspension. […]
The ^14C-TG and ^3H-PC remaining in the supernatant were quantitated by scintillation counting. TG transfer was calculated by comparing the ratio of ^14C-TG (transferred from the donor membranes to the acceptor membranes) to ^3H-PC (a marker of acceptor vesicle recovery) present in the supernatant following a transfer reaction to the ratio of total donor ^14C-TG to acceptor [^3H]PC in the assay before the transfer reaction. The percentage of ^14C-TG transfer was calculated as follows: [formula] […]

Structure (SMILES) | IC50 [nM] | decrease of TG transfer (at concentrations that inhibited approximately 40% of PC transfer)
O=C1c2ccccc2CN1C1CCN(CCC(c2ccccc2)c2ccccc2)CC1 [compound A, 2-[1-(3,3-diphenylpropyl)-4-piperdinyl]-2,3-dihydro-3-oxo-1H-isoindole hydrochloride] | ~1000 | more than 80%
COc1ccccc1N1CCN(CC2CC(=O)c3ccc(F)cc3C2)CC1 (stereo not drawn) [compound B, 1-[3-(6-fluoro-1-tetralanyl)methyl]-4-O-methoxyphenyl piperazine] | 4000 to 6000 | 
